Holding throughout (type): cell-based
Assay [1] deals with SH-SY5Y (human neuroblastoma) cells. The assay can be described thus: Cell viability, Cell Titer Glo 2.0 assay. Particulars: read-out: Viability SHSY5Y.3 GI50. The procedure, abridged: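 Toxicity screen in SH-SY5Y cells. Compounds were serially diluted in DMSO and then in medium, giving 0.1% DMSO final. Viability was read with CellTiter-Glo 2.0 after 72 h at 37 °C, 5% CO2, against medium-only blank wells.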

In assay [2] the test system is MYB mRNA. The assay can be described thus: Splicing RT-qPCR assay, canonical (CJ) and alternative (AJ) junction mRNA, K562 cells. Particulars: Homo sapiens, K562.3 cells, 24 hours; for AC50: read-out: MYB AJ (AC50, increase in AJ mRNA); for pIC50: read-out: MYB CJ (IC50, decrease in CJ mRNA). The procedure, abridged:
(§1)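 K562 cells were treated for 24 h at 37 °C with an 11-point 3-fold dilution series (top 10 uM final, DMSO ≤0.25%), then lysed for one-step RT-qPCR of canonical and alternative junctions. ΔΔCt was taken against GAPDH or GUSB and DMSO, converted to RQ by 2^(−ΔΔCt), then to % response.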

For assay [3], the system named is HTT mRNA. The description is as above. The settings on record: Homo sapiens, K562.3 cells, 24 hours; for AC50: read-out: HTT AJ (AC50, increase in AJ mRNA); for pIC50: read-out: HTT CJ (IC50, decrease in CJ mRNA). The procedure, abridged:
as §1

The test system of assay [4] is MYB mRNA. The assay can be described thus: Splicing RT-qPCR assay (THP), Table 2A. The settings on record: Table 2A (THP); for AC50: AJ mRNA increase, read-out: MYB AJ (increase in alternative junction mRNA, AC50); for pIC50: CJ mRNA decrease, read-out: MYB CJ (decrease in canonical junction mRNA, IC50).
The subject of assay [5] is HTT mRNA. The assay can be described thus: Splicing RT-qPCR assay (THP), Table 2A. The settings on record: Table 2A (THP); for AC50: AJ mRNA increase, read-out: HTT AJ (increase in alternative junction mRNA, AC50); for pIC50: CJ mRNA decrease, read-out: HTT CJ (decrease in canonical junction mRNA, IC50).

pIC50: −log10 of the molar value. Where only a bound is given, the exact number is not on record here.

On to `CCNC1CCN(c2ccc(C(=O)Nc3cc4cn(C)nc4cc3O)c3[nH]ccc23)CC1` [Compound 190, 4-[4-(ethylamino)-1-piperidyl]-N-(6-hydroxy-2-methyl-indazol-5-yl)-1H-indole-7-carboxamide], for which the GI50 in assay [1] was over 10000 nM. Besides, the concentration at half-maximal activity (AC50) in the assay with MYB mRNA [2], in the assay with HTT mRNA [3], in the assay with MYB mRNA [4] and in the assay with HTT mRNA [5] was over 10000 nM each time. In addition, the negative logarithm of the IC50 (pIC50) in the assay on MYB mRNA [2], in the assay on HTT mRNA [3], in the assay with MYB mRNA [4] and in the assay with HTT mRNA [5] was under 5.00 throughout.
For the compound `Cc1cn2cc(NC(=O)c3ccc(N4CCC(NC5CC5)CC4)c4ccoc34)cc(F)c2n1` [Compound 191, 4-[4-(cyclopropylamino)-1-piperidyl]-N-(8-fluoro-2-methyl-imidazo[1,2-a]pyridin-6-yl) benzofuran-7-carboxamide], the GI50 in assay [1] was 100 to 1000 nM. Moreover, the concentration at half-maximal activity (AC50) is 100 to 1000 nM with MYB mRNA [2], 1000 to 10000 nM with HTT mRNA [3], under 100 nM with MYB mRNA [4] and 1000 to 10000 nM in the assay on HTT mRNA [5]. The negative-log IC50 (pIC50) is 6.00 to 7.00 in the assay on MYB mRNA [2], 5.00 to 6.00 in the assay on HTT mRNA [3], 6.00 to 7.00 with MYB mRNA [4] and 5.00 to 6.00 in the assay with HTT mRNA [5].
On to `Cc1cn2cc(NC(=O)c3ccc(C4CCC(NC5CC5)CC4)c4cn(C)nc34)cc(F)c2n1` (stereo not drawn) [Compound 192, 4-[4-(cyclopropylamino)cyclohexyl]-N-(8-fluoro-2-methyl-imidazo[1,2-a]pyridin-6-yl)-2-methyl-indazole-7-carboxamide], for which the GI50 in assay [1] lay within 100 to 1000 nM. Moreover, the AC50 in the assay with MYB mRNA [2] is 100 to 1000 nM; with HTT mRNA [3] it was 1000 to 10000 nM; in the assay with MYB mRNA [4], 100 to 1000 nM; in the assay on HTT mRNA [5], 1000 to 10000 nM. Also, the pIC50 is 6.00 to 7.00 in the assay with MYB mRNA [2], 6.00 to 7.00 in the assay with HTT mRNA [3], 6.00 to 7.00 in the assay with MYB mRNA [4] and 5.00 to 6.00 in the assay with HTT mRNA [5].
In the case of `CCNC1CCN(c2ccc(C(=O)Nc3cc(F)c4nc(CO)cn4c3)c3nn(C)cc23)CC1` [Compound 193, 4-[4-(ethylamino)-1-piperidyl]-N-[8-fluoro-2-(hydroxymethyl)imidazo[1,2-a]pyridin-6-yl]-2-methyl-indazole-7-carboxamide], the 50% growth inhibitory concentration (GI50) in assay [1] lay in the range of 1000 to 10000 nM. Also, the AC50 in the assay on MYB mRNA [2] was 1000 to 10000 nM; with HTT mRNA [3] it was over 10000 nM; in the assay with MYB mRNA [4], 100 to 1000 nM; in the assay on HTT mRNA [5], 1000 to 10000 nM. The pIC50 in the assay with MYB mRNA [2] was 6.00 to 7.00; in the assay on HTT mRNA [3], under 5.00; with MYB mRNA [4] it was 6.00 to 7.00; in the assay on HTT mRNA [5], 5.00 to 6.00.
Turning to `Cc1cn2cc(NC(=O)c3ccc(C4CNCCO4)c4[nH]cnc34)cc(F)c2n1` (stereo not drawn) [Compound 194, N-(8-fluoro-2-methyl-imidazo[1,2-a]pyridin-6-yl)-7-morpholin-2-yl-1H-benzimidazole-4-carboxamide], the GI50 in assay [1] lay in the range of 1000 to 10000 nM. Further, the half-maximal activity concentration (AC50) was 100 to 1000 nM with MYB mRNA [2], 1000 to 10000 nM in the assay on HTT mRNA [3], 100 to 1000 nM in the assay on MYB mRNA [4] and over 10000 nM in the assay with HTT mRNA [5]. Besides, the pIC50 in the assay with MYB mRNA [2] was 6.00 to 7.00; in the assay on HTT mRNA [3], 5.00 to 6.00; in the assay with MYB mRNA [4], 6.00 to 7.00; in the assay with HTT mRNA [5] it was 5.00 to 6.00.
As for `CCNC1CCN(c2cc(F)c(C(=O)Nc3cc(F)c4nc(C)cn4c3)c3ccoc23)CC1` [Compound 195, 7-[4-(ethylamino)-1-piperidyl]-5-fluoro-N-(8-fluoro-2-methylimidazo[1,2-a]pyridin-6-yl)-benzofuran-4-carboxamide], the GI50 in assay [1] fell in the range of 1000 to 10000 nM. Moreover, the AC50 with MYB mRNA [2], in the assay with HTT mRNA [3], in the assay on MYB mRNA [4] and with HTT mRNA [5] was over 10000 nM each time. Besides, the pIC50 in the assay on MYB mRNA [2], with HTT mRNA [3], with MYB mRNA [4] and with HTT mRNA [5] was under 5.00 throughout.
Consider `CCNC1CCN(c2ccc(C(=O)Nc3cc(F)c4nc(C)cn4c3)c3nn(C)nc23)CC1` [Compound 196, 7-[4-(ethylamino)piperidin-1-yl]-N-(8-fluoro-2-methyl-imidazo[1,2-a]pyridin-6-yl)-2-methyl-1,2,3-benzotriazole-4-carboxamide], for which the 50% growth inhibitory concentration (GI50) in assay [1] is 1000 to 10000 nM. Also, the concentration at half-maximal activity (AC50) with MYB mRNA [2], with HTT mRNA [3], in the assay on MYB mRNA [4] and in the assay on HTT mRNA [5] was 100 to 1000 nM each time. The pIC50 in the assay on MYB mRNA [2], in the assay on HTT mRNA [3], in the assay with MYB mRNA [4] and with HTT mRNA [5] was 6.00 to 7.00 throughout.
In the case of `CNC1(C)CCN(c2ccc(C(=O)Nc3cn4cc(C)nc4c(OC)n3)c3nn(C)cc23)CC1` [Compound 197, N-(8-methoxy-2-methylimidazo[1,2-a]pyrazin-6-yl)-2-methyl-4-(4-methyl-4-(methylamino)piperidin-1-yl)-2H-indazole-7-carboxamide], the GI50 in assay [1] was under 100 nM. The AC50 in the assay on MYB mRNA [2], with HTT mRNA [3], in the assay with MYB mRNA [4] and in the assay with HTT mRNA [5] was under 100 nM throughout. In addition, the pIC50 in the assay with MYB mRNA [2], in the assay with HTT mRNA [3], with MYB mRNA [4] and in the assay with HTT mRNA [5] was over 7.00 each time.
`CCNC1CCN(c2ccc(C(=O)Nc3cc(F)c4nc(C)cn4c3)c3c2nnn3C)CC1` [Compound 198, 4-(4-(ethylamino)piperidin-1-yl)-N-(8-fluoro-2-methylimidazo[1,2-a]pyridin-6-yl)-1-methyl-1H-benzo[d][1,2,3]triazole-7-carboxamide 2,2,2-trifluoroacetate]: the GI50 in assay [1] is over 10000 nM. Besides, the AC50 in the assay with MYB mRNA [2], with HTT mRNA [3], in the assay with MYB mRNA [4] and in the assay on HTT mRNA [5] was over 10000 nM in each case. Moreover, the pIC50 in the assay with MYB mRNA [2], in the assay with HTT mRNA [3], in the assay with MYB mRNA [4] and with HTT mRNA [5] was under 5.00 throughout.
Regarding `CCNC1CCN(c2ccc(C(=O)Nc3cc(F)c4nc(C)cn4c3)c3nnn(C)c23)CC1` [Compound 199, 7-[4-(ethylamino)-1-piperidyl]-N-(8-fluoro-2-methylimidazo[1,2-a]-pyridin-6-yl)-1-methylbenzotriazole-4-carboxamide], the GI50 in assay [1] fell in the range of 1000 to 10000 nM. Besides, the concentration at half-maximal activity (AC50) was 100 to 1000 nM in the assay with MYB mRNA [2], over 10000 nM in the assay on HTT mRNA [3], 100 to 1000 nM with MYB mRNA [4] and over 10000 nM with HTT mRNA [5]. Moreover, the pIC50 was 6.00 to 7.00 in the assay on MYB mRNA [2], under 5.00 in the assay with HTT mRNA [3], 6.00 to 7.00 with MYB mRNA [4] and under 5.00 with HTT mRNA [5].
Turning to `CCNC1CCN(c2ccc(C(=O)Nc3cc(F)c4nc(C)oc4c3)c3nn(C)cc23)CC1` [Compound 200, 4-(4-(ethylamino)piperidin-1-yl)-N-(4-fluoro-2-methylbenzo[d]-oxazol-6-yl)-2-methyl-2H-indazole-7-carboxamide], the GI50 in assay [1] was in the range of 100 to 1000 nM. Also, the half-maximal activity concentration (AC50) in the assay with MYB mRNA [2] was under 100 nM; in the assay on HTT mRNA [3], 1000 to 10000 nM; with MYB mRNA [4], under 100 nM; in the assay on HTT mRNA [5] it was 1000 to 10000 nM. Also, the negative logarithm of the IC50 (pIC50) is 6.00 to 7.00 in the assay on MYB mRNA [2], 6.00 to 7.00 in the assay with HTT mRNA [3], over 7.00 with MYB mRNA [4] and 6.00 to 7.00 in the assay with HTT mRNA [5].
On to `CCNC1CCN(c2ccc(C(=O)Nc3cc(F)c4nc(CC)cn4c3)c3nn(C)cc23)CC1` [Compound 201, 4-[4-(ethylamino)-1-piperidyl]-N-(2-ethyl-8-fluoro-imidazo[1,2-a]pyridin-6-yl)-2-methyl-indazole-7-carboxamide], for which the GI50 in assay [1] lay in the range of 1000 to 10000 nM. The half-maximal activity concentration (AC50) in the assay on MYB mRNA [2], in the assay on HTT mRNA [3], in the assay on MYB mRNA [4] and with HTT mRNA [5] was 1000 to 10000 nM each time. Also, the negative logarithm of the IC50 (pIC50) with MYB mRNA [2], with HTT mRNA [3], in the assay on MYB mRNA [4] and in the assay with HTT mRNA [5] was 5.00 to 6.00 in each case.
Turning to `CCNC1CCN(c2ccc(C(=O)Nc3cc(F)c4nc(CF)cn4c3)c3nn(C)cc23)CC1` [Compound 202, 4-[4-(ethylamino)-1-piperidyl]-N-[8-fluoro-2-(fluoromethyl)imidazo[1,2-a]pyridin-6-yl]-2-methyl-indazole-7-carboxamide], the GI50 in assay [1] was 100 to 1000 nM. Further, the half-maximal activity concentration (AC50) in the assay on MYB mRNA [2] is 100 to 1000 nM; in the assay on HTT mRNA [3] it was 1000 to 10000 nM; with MYB mRNA [4] it was under 100 nM; with HTT mRNA [5], 100 to 1000 nM. The pIC50 in the assay on MYB mRNA [2] is over 7.00; in the assay on HTT mRNA [3], 5.00 to 6.00; in the assay with MYB mRNA [4], over 7.00; with HTT mRNA [5], 5.00 to 6.00.
Consider `Cc1cn2cc(NC(=O)c3ccc(N4CCC(NC5CC56CC6)CC4)c4cn(C)nc34)cc(F)c2n1` (stereo not drawn) [Compound 203, N-(8-fluoro-2-methyl-imidazo[1,2-a]-pyridin-6-yl)-2-methyl-4-[4-(spiro[2.2]pentan-2-ylamino)-1-piperidyl] indazole-7-carboxamide], for which the GI50 in assay [1] fell in the range of 100 to 1000 nM. Besides, the AC50 in the assay on MYB mRNA [2] was under 100 nM; in the assay on HTT mRNA [3], 1000 to 10000 nM; with MYB mRNA [4] it was under 100 nM; with HTT mRNA [5], 100 to 1000 nM. Besides, the negative logarithm of the IC50 (pIC50) with MYB mRNA [2] was over 7.00; in the assay with HTT mRNA [3], 6.00 to 7.00; with MYB mRNA [4], over 7.00; with HTT mRNA [5], 6.00 to 7.00.
